ChEMBL document CHEMBL1134100, “An unhydrolyzable analogue of N-(4-hydroxyphenyl)retinamide. synthesis and preliminary biological studies” (Bioorg Med Chem Lett, 2001)
Each block holds one compound with its values, some of them ahead of it.

Assays:
[1] = target: T1, Retinoic acid receptor gamma (Homo sapiens, UniProt P13631); assay: Binding affinity against Retinoic acid receptor gamma
T1 sequence (P13631 whole entry): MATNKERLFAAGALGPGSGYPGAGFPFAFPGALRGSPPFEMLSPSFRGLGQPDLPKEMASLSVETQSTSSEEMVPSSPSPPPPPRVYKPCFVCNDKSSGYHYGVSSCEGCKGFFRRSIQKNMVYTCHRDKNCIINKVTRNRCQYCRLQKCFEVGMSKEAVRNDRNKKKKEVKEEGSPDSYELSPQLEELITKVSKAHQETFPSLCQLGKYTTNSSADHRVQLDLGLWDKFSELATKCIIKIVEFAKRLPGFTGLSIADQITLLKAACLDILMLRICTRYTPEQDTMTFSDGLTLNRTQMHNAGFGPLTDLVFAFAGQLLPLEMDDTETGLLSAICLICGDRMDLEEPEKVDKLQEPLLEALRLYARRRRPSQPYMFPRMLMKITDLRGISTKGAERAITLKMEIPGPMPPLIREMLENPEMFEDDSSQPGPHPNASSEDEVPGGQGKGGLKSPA

Rattus norvegicus [2] = assay: Effect on total mammary tumor volume in female rats on day 7 after a diet additive of 2 mmol/kg (+/-S.E) (p<0.05); type: functional
Rattus norvegicus [3] = assay: Effect on total mammary tumor volume in female rats on day 1 after a diet additive of 2 mmol/kg (+/-S.E) (p<0.05); type: functional
Rattus norvegicus [4] = assay: % change in the mean tumor volume in female rats on 21 days after a diet additive of 2 mmol/kg of the compound; type: functional
Rattus norvegicus [5] = assay: Effect on total mammary tumor volume in female rats on day 21 after a diet additive of 2 mmol/kg (+/-S.E) (p<0.05); type: functional
Rattus norvegicus [6] = assay: Effect on total mammary tumor volume in female rats on day 14 after a diet additive of 2 mmol/kg (+/-S.E) (p<0.05); type: functional

Ki [1]: > 4000 nM
SMILES: CC1=C(/C=C/C(C)=C/C=C/C(C)=C/C(=O)Cc2ccc(O)cc2)C(C)(C)CCC1
Mean tumor volume (Rattus norvegicus [2]): 0.47 cm*3
Mean tumor volume (Rattus norvegicus [3]): 0.59 cm*3
Change (Rattus norvegicus [4]): -85%
Mean tumor volume (Rattus norvegicus [5]): 0.09 cm*3
Mean tumor volume (Rattus norvegicus [6]): 0.15 cm*3

Ki [1]: > 400 nM
SMILES: CC1=C(/C=C/C(C)=C/C=C/C(C)=C/C(=O)Nc2ccc(O)cc2)C(C)(C)CCC1 [FENRETINIDE]
Mean tumor volume (Rattus norvegicus [2]): 0.17 cm*3
Mean tumor volume (Rattus norvegicus [3]): 0.2 cm*3
Change (Rattus norvegicus [4]): -77%
Mean tumor volume (Rattus norvegicus [5]): 0.05 cm*3
Mean tumor volume (Rattus norvegicus [6]): 0.1 cm*3

SMILES: CC1=C(/C=C/C(C)=C/C=C/C(C)=C/C(=O)O)C(C)(C)CCC1 [TRETINOIN]
Mean tumor volume (Rattus norvegicus [2]): 0.46 cm*3
Mean tumor volume (Rattus norvegicus [3]): 0.69 cm*3
Change (Rattus norvegicus [4]): -74%
Mean tumor volume (Rattus norvegicus [5]): 0.18 cm*3
Mean tumor volume (Rattus norvegicus [6]): 0.27 cm*3
